According to ChEMBL document CHEMBL1667796, “Synthesis and evaluation of phosphonated N-heteroarylcarboxamides as DOXP-reductoisomerase (DXR) inhibitors” (Bioorg Med Chem, 2011):
Active and inactive are the calls of the source. The rule behind the calls is not given here.

Key:
[1] = tested on: Escherichia coli; assay: Binding affinity at Escherichia coli DXR by saturation transfer difference NMR spectroscopy
[2] = Inhibition of Escherichia coli DXR assessed as conversion of NADPH to NADP by spectrophotometry
[3] = tested on: Escherichia coli; assay: Inhibition of Escherichia coli DXR assessed as conversion of NADPH to NADP at 500 uM by spectrophotometry
[4] = tested on: Escherichia coli; assay: Inhibition of Escherichia coli DXR assessed as conversion of NADPH to NADP at 0.3 uM by spectrophotometry

| inhibition [4] | Compound | Activity [1] | IC50 ([2]; read-out: IC50) | inhibition [3] | IC50 [2] |
| --- | --- | --- | --- | --- | --- |
|  | CCOP(=O)(CC(=O)Nc1ccon1)OCC | Active | 1170 µM | 11.7% |  |
|  | O=C(CP(=O)([O-])[O-])Nc1ccccn1.[Na+].[Na+] | Active |  | inactive | Not Active |
|  | CCOP(=O)(CC(=O)Nc1nc(C)c(C(C)=O)s1)OCC | Active | 1290 µM |  |  |
|  | O=C(CP(=O)(O)O)NCc1ccco1 | Active | 1030 µM | 30% |  |
|  | CCOP(=O)(CC(=O)Nc1nccs1)OCC | Active | 730 µM | 28.9% |  |
|  | CCOP(=O)(CC(=O)NCc1ccco1)OCC | Active | 408 µM | 67.7% |  |
| 99.3% | O=CN(O)CCCP(=O)(O)O |  |  |  |  |
|  | CCOP(=O)(CC(=O)Nc1ccccn1)OCC | Active | 472 µM | 58.5% |  |
|  | O=C(CP(=O)(O)O)Nc1ccon1 | Active | > 1500 µM | 12.2% |  |
|  | O=C(CP(=O)(O)O)Nc1nccs1 | Active | > 1500 µM | 7.4% |  |
|  | CC(=O)c1sc(NC(=O)CP(=O)(O)O)nc1C | Active | > 1500 µM | 16.6% |  |
